Test results published in patent publication US5760092A, “Allocolchinones and uses thereof” (Brandeis University, priority 1996, dated 1998).
Several values for one entry are separate records, joined by “and”; a condition that tells them apart may be missing. Equal values may be shown once. Read-outs that look alike come from different tables or passages of the source.

Legend:
[1] = test system: OVCAR-8 ovarian cancer cells
tubulin = experiment: Binding to tubulin
[2] = test system: OVCAR-3 ovarian cancer cells
[3] = test system: RXF-393 renal cancer cells; experiment: cells; conditions: Homo sapiens
[4] = test system: HS 578T breast cancer cells; experiment: cells; conditions: Homo sapiens
[5] = test system: SK-OV-3 ovarian cancer cells; conditions: log10 conc -6.0; 1 µM
[6] = test system: CAKI-1 renal cancer cells; experiment: cells; conditions: Homo sapiens
[7] = test system: HS 578T breast cancer cells
A498 renal cancer cells [8] = experiment: cells; conditions: Homo sapiens
A498 renal cancer cells [9] = conditions: log10 conc -6.0; 1 µM
[10] = test system: HOP-92 non-small cell lung cancer cells; experiment: cells; conditions: Homo sapiens
SF-295 CNS cancer cells = experiment: cells; conditions: Homo sapiens
[11] = test system: HOP-92 non-small cell lung cancer cells
[12] = test system: CAKI-1 renal cancer cells
[13] = test system: SK-OV-3 ovarian cancer cells; experiment: cells; conditions: Homo sapiens
[14] = test system: HOP-62 non-small cell lung cancer cells; experiment: cells; conditions: Homo sapiens
[15] = test system: MCF7/ADR-RES breast cancer cells; experiment: cells; format: cell-based
[16] = test system: HOP-62 non-small cell lung cancer cells

For `COc1cc2c(c(OC)c1OC)-c1ccc(C(C)=O)cc1C(NC(C)=O)CC2` (centres unmarked), the “Percent Growth” value (SNB-75 CNS cancer cells; log10 conc -4.0, 100 µM) was 39%, the “Percent Growth” value (SNB-75 CNS cancer cells; log10 conc -5.0) was 43% and the “Percent Growth” value (SNB-75 CNS cancer cells; log10 conc -6.0, 1 µM) was 52% and 43%. The “Percent Growth” value (SNB-75 CNS cancer cells; log10 conc -7.0, 0.1 µM) was 46% and 50%, the “Percent Growth” value (SNB-75 CNS cancer cells; log10 conc -8.0, 0.01 µM) was 41% and 44% and the “Percent Growth” value (SNB-75 CNS cancer cells; log10 conc -9.0, 0.001 µM) was 17%. The “Percent Growth” value (SNB-75 CNS cancer cells; log10 conc -10.0, 0.0001 µM) was 96%, the “Percent Growth” value ([1]; log10 conc -4.0, 100 µM) was -45% and the “Percent Growth” value ([1]; log10 conc -5.0) was -29%. The “Percent Growth” value ([1]; log10 conc -6.0, 1 µM) was 9%, the “Percent Growth” value ([1]; log10 conc -9.0, 0.001 µM) was 25% and the “Percent Growth” value ([1]; log10 conc -10.0, 0.0001 µM) was 96%. For the same compound, the “Percent Growth” value (SF-539 CNS cancer cells; log10 conc -4.0, 100 µM) was -27%, the “Percent Growth” value (SF-539 CNS cancer cells; log10 conc -5.0) was -31% and the “Percent Growth” value (SF-539 CNS cancer cells; log10 conc -6.0, 1 µM) was -24%. For the same compound, the “Percent Growth” value (SF-539 CNS cancer cells; log10 conc -7.0, 0.1 µM) was -24%, the “Percent Growth” value (SF-539 CNS cancer cells; log10 conc -8.0) was -16% and the “Percent Growth” value (SF-539 CNS cancer cells; log10 conc -9.0, 0.001 µM) was 19%. The “Percent Growth” value (SF-539 CNS cancer cells; log10 conc -10.0, 0.0001 µM) was 100%, the binding to tubulin (tubulin) was “reversible” and the TGI [2] was over 100000 nM. The “Percent Growth” value ([2]; log10 conc -6.0, 1 µM) was 7%, the “Percent Growth” value ([2]; log10 conc -7.0, 0.1 µM) was 15% and the “Percent Growth” value ([2]; log10 conc -8.0) was 23%. For the same compound, the CC50 ([3]; RXF 393, read-out: LC50) was over 1000 nM, the activity at 1 µM ([3]; RXF 393, read-out: Percent Growth, log10 conc -6.0) was 61% and the activity at 0.1 µM ([3]; RXF 393, read-out: Percent Growth, log10 conc -7.0) was 55%. It also gave an activity at 0.01 µM ([3]; RXF 393, read-out: Percent Growth, log10 conc -8.0) of 35%, an activity at 0.001 µM ([3]; RXF 393, read-out: Percent Growth, log10 conc -9.0) of 42% and an activity at 0.0001 µM ([3]; RXF 393, read-out: Percent Growth, log10 conc -10.0) of 101%. It also gave an activity at 100 µM ([4]; read-out: Percent Growth, log10 conc -4.0) of 16%, an activity at 10 µM ([4]; read-out: Percent Growth, log10 conc -5.0) of 27% and an activity at 0.1 µM ([4]; read-out: Percent Growth, log10 conc -7.0) of 38%. The activity at 0.01 µM ([4]; read-out: Percent Growth, log10 conc -8.0) was 39%, the activity at 0.001 µM ([4]; read-out: Percent Growth, log10 conc -9.0) was 27% and the activity at 0.0001 µM ([4]; read-out: Percent Growth, log10 conc -10.0) was 103%. The “Percent Growth” value [5] was 10%, the GI50 ([6]; CAKI-1) was 40.1 nM and the activity at 100 µM ([6]; CAKI-1, read-out: Percent Growth, log10 conc -4.0) was 37%. For the same compound, the activity at 10 µM ([6]; CAKI-1, read-out: Percent Growth, log10 conc -5.0) was 39%, the activity at 1 µM ([6]; CAKI-1, read-out: Percent Growth, log10 conc -6.0) was 36% and the activity at 0.1 µM ([6]; CAKI-1, read-out: Percent Growth, log10 conc -7.0) was 35%. The activity at 0.01 µM ([6]; CAKI-1, read-out: Percent Growth, log10 conc -8.0) was 73%, the “Percent Growth” value ([7]; log10 conc -6.0, 1 µM) was 25% and the “Percent Growth” value ([7]; log10 conc -8.0, 0.01 µM) was 24%. For the same compound, the activity at 100 µM (A498 renal cancer cells [8]; A498, read-out: Percent Growth, log10 conc -4.0) was 1%, the activity at 10 µM (A498 renal cancer cells [8]; A498, read-out: Percent Growth, log10 conc -5.0) was 3% and the activity at 0.001 µM (A498 renal cancer cells [8]; A498, read-out: Percent Growth, log10 conc -9.0) was 72%. For the same compound, the activity at 0.0001 µM (A498 renal cancer cells [8]; A498, read-out: Percent Growth, log10 conc -10.0) was 77%, the “Percent Growth” value (A498 renal cancer cells [9]) was 25% and the GI50 ([10]; HOP-92) was 0.618 nM. The activity at 100 µM ([10]; HOP-92, read-out: Percent Growth, log10 conc -4.0) was 57%, the activity at 10 µM ([10]; HOP-92, read-out: Percent Growth, log10 conc -5.0) was 53% and the activity at 0.001 µM ([10]; HOP-92, read-out: Percent Growth, log10 conc -9.0) was 36%. The activity at 0.0001 µM ([10]; HOP-92, read-out: Percent Growth, log10 conc -10.0) was 94%, the “Percent Growth” value (SF-268 CNS cancer cells; log10 conc -4.0, 100 µM) was 32% and the “Percent Growth” value (SF-268 CNS cancer cells; log10 conc -5.0) was 37%. The “Percent Growth” value (SF-268 CNS cancer cells; log10 conc -6.0, 1 µM) was 36% and 38%, the “Percent Growth” value (SF-268 CNS cancer cells; log10 conc -7.0, 0.1 µM) was 35% and 45% and the “Percent Growth” value (SF-268 CNS cancer cells; log10 conc -9.0, 0.001 µM) was 40%. The “Percent Growth” value (SF-268 CNS cancer cells; log10 conc -10.0, 0.0001 µM) was 92%, the “Percent Growth” value (SNB-19 CNS cancer cells; log10 conc -4.0, 100 µM) was 6% and the “Percent Growth” value (SNB-19 CNS cancer cells; log10 conc -5.0) was 7%. The “Percent Growth” value (SNB-19 CNS cancer cells; log10 conc -6.0, 1 µM) was 36%, the “Percent Growth” value (SNB-19 CNS cancer cells; log10 conc -8.0, 0.01 µM) was 25% and 16% and the “Percent Growth” value (SNB-19 CNS cancer cells; log10 conc -9.0, 0.001 µM) was 63%. The “Percent Growth” value (SNB-19 CNS cancer cells; log10 conc -10.0, 0.0001 µM) was 99%, the activity at 100 µM (SF-295 CNS cancer cells; SF-295, read-out: Percent Growth, log10 conc -4.0) was -14% and the activity at 10 µM (SF-295 CNS cancer cells; SF-295, read-out: Percent Growth, log10 conc -5.0) was -10%. The activity at 0.01 µM (SF-295 CNS cancer cells; SF-295, read-out: Percent Growth, log10 conc -8.0) was 6%, the activity at 0.001 µM (SF-295 CNS cancer cells; SF-295, read-out: Percent Growth, log10 conc -9.0) was 16% and the activity at 0.0001 µM (SF-295 CNS cancer cells; SF-295, read-out: Percent Growth, log10 conc -10.0) was 104%. The “Percent Growth” value (MOLT-4 leukemia cells; log10 conc -4.0, 100 µM) was -5%, the “Percent Growth” value (MOLT-4 leukemia cells; log10 conc -5.0) was 5% and the “Percent Growth” value (MOLT-4 leukemia cells; log10 conc -6.0, 1 µM) was 5%. The “Percent Growth” value (MOLT-4 leukemia cells; log10 conc -8.0) was 34%, the “Percent Growth” value (MOLT-4 leukemia cells; log10 conc -9.0, 0.001 µM) was 32% and the “Percent Growth” value (MOLT-4 leukemia cells; log10 conc -10.0, 0.0001 µM) was 106%. For the same compound, the “Percent Growth” value ([11]; log10 conc -6.0, 1 µM) was 11%, the “Percent Growth” value ([11]; log10 conc -7.0, 0.1 µM) was 24% and 45% and the “Percent Growth” value ([11]; log10 conc -8.0, 0.01 µM) was 45% and 66%. For the same compound, the TGI [12] was over 100000 nM, the “Percent Growth” value (U251 CNS cancer cells; log10 conc -4.0, 100 µM) was 4% and the “Percent Growth” value (U251 CNS cancer cells; log10 conc -5.0) was 3%. For the same compound, the “Percent Growth” value (U251 CNS cancer cells; log10 conc -9.0, 0.001 µM) was 23%, the “Percent Growth” value (U251 CNS cancer cells; log10 conc -10.0, 0.0001 µM) was 96% and the activity at 100 µM ([13]; SK-OV-3, read-out: Percent Growth, log10 conc -4.0) was 9%. For the same compound, the activity at 10 µM ([13]; SK-OV-3, read-out: Percent Growth, log10 conc -5.0) was 15%, the activity at 1 µM ([13]; SK-OV-3, read-out: Percent Growth, log10 conc -6.0) was 14% and the activity at 0.1 µM ([13]; SK-OV-3, read-out: Percent Growth, log10 conc -7.0) was 19%. It also gave an activity at 0.01 µM ([13]; SK-OV-3, read-out: Percent Growth, log10 conc -8.0) of 12%, an activity at 0.001 µM ([13]; SK-OV-3, read-out: Percent Growth, log10 conc -9.0) of 44% and an activity at 0.0001 µM ([13]; SK-OV-3, read-out: Percent Growth, log10 conc -10.0) of 95%. It also gave a GI50 ([14]; HOP-62) of 7.68 nM, an activity at 100 µM ([14]; HOP-62, read-out: Percent Growth, log10 conc -4.0) of 22% and an activity at 10 µM ([14]; HOP-62, read-out: Percent Growth, log10 conc -5.0) of 20%. It also gave an activity at 1 µM ([14]; HOP-62, read-out: Percent Growth, log10 conc -6.0) of 44%, an activity at 0.1 µM ([14]; HOP-62, read-out: Percent Growth, log10 conc -7.0) of 46% and an activity at 0.01 µM ([14]; HOP-62, read-out: Percent Growth, log10 conc -8.0) of 47%. The activity at 0.001 µM ([14]; HOP-62, read-out: Percent Growth, log10 conc -9.0) was 77%, the activity at 0.0001 µM ([14]; HOP-62, read-out: Percent Growth, log10 conc -10.0) was 101% and the GI50 [15] was 23 nM. For the same compound, the GI50 ([15]; Homo sapiens, MCF7) was 21.1 nM, the activity at 100 µM ([15]; Homo sapiens, MCF7, read-out: Percent Growth, log10 conc -4.0) was -1% and the activity at 10 µM ([15]; Homo sapiens, MCF7, read-out: Percent Growth, log10 conc -5.0) was -1%. For the same compound, the activity at 1 µM ([15]; Homo sapiens, MCF7, read-out: Percent Growth, log10 conc -6.0) was 37%, the activity at 0.01 µM ([15]; Homo sapiens, MCF7, read-out: Percent Growth, log10 conc -8.0) was 56% and the activity at 0.001 µM ([15]; Homo sapiens, MCF7, read-out: Percent Growth, log10 conc -9.0) was 73%. The activity at 0.0001 µM ([15]; Homo sapiens, MCF7, read-out: Percent Growth, log10 conc -10.0) was 91%, the GI50 [16] was under 10 nM and the “Percent Growth” value ([16]; log10 conc -6.0, 1 µM) was 31%. For the same compound, the “Percent Growth” value ([16]; log10 conc -7.0, 0.1 µM) was 29% and the “Percent Growth” value ([16]; log10 conc -8.0, 0.01 µM) was 45%.
